# From patent US12521423B2, “Method and composition for treating gastrointestinal inflammatory disorders” (THE REGENTS OF THE UNIVERSITY OF COLORADO, a body corporate, priority 2019, dated 2026)
# Read-outs that look alike come from different tables or passages of the source.
# Tests used:
# T84 cells [1] = test: HPLC adenylate and energy metabolite analyses of treated T84 cells; format: cell-based
# T84 cells [2] = test: calcium switch assay / transepithelial resistance of T84 monolayers; format: cell-based
# Description: This model utilizes transient divalent cation chelation to disrupt epithelial tight junctions in fully confluent cells.
# Briefly, polarized, high-resistant (>1,500 Ω·cm2) T84 monolayers on 0.33 cm^2 (non-metabolomic) or 5 cm^2 (metabolomics) transwell inserts (Costar, 0.4 μm) were equilibrated for 1 h in HBSS in the case of non-metabolomic analyses and approx. 20 h in the case of metabolomic analyses. All experiments were performed at 37° C. and transepithelial resistance monitored using a voltohmeter (World Precision Instruments EVOM). Extracellular Ca^2+ was chelated via washing and incubation with Ca^2+-free HBSS supplemented with 2 mM EDTA for 5 min, after which the samples were washed into HBSS with normal calcium (1.8 mM).
# To our surprise, this analysis identified an inverse correlation between Hpx and barrier, with Hpx spiking from approx. 1 to 3.5 μM (p<0.004) at the barrier nadir. […] To extend this observation, T84 cells were supplemented with Hpx (range 0.1-1 mM, 20 h) and a calcium switch assay performed.
# Allopurinol (Allo) is a structural analog of hypoxanthine commonly used to treat gout. The drug is metabolized into oxipurinol by xanthine oxidase (XO), which in turn inhibits XO and decreases uric acid. Allopurinol was employed as a competitive substrate/inhibitor for hypoxanthine-guanine phosphoribosyl transferase (HGPRT) to assess the contribution of Hpx salvage to the barrier formation process using the calcium switch assay and transepithelial resistance measurements described above.
# T84 cells [3] = conditions: 1 mM Hpx
# Description: To examine the impact of Hpx supplementation on epithelial function during physiologically-relevant metabolic stress, T84 cells were exposed to hypoxia (1% O2, 40 h) in the presence and absence of 1 mM Hpx, and barrier and adenylate metabolites monitored.
# [4] = system: colonic adenylate and energy metabolism; conditions: Hpx 1 mM enema 5 and 18 h before sacrifice
# Description: To assess the influence of purine supplementation on colonic adenylate and energy metabolism, MDP was depleted by treating mice with streptomycin, and reconstituted by administration of Hpx (1 mM) by enema at time points of 5 and 18 h before sacrifice and distal colon tissue metabolite extracts analyzed.
# [5] = 10 mM Hpx in drinking water
# Description: (§1) To validate the role of exogenous purine supply on colonic function, streptomycin-treated mice (S-0 mM HPX-DSS) were supplemented with 1 and 5 mM Hpx (S-1 mM HPX-DSS and S-5 mM HPX-DSS) in their drinking water and submitted to DSS colitis.
# DSS colitis = conditions: for body weight lost: no Hpx ~9; for sterility index: from 0; for tissue AEC: from 0.30; for BiP: from 0.41; for sterile inner mucin layer: from ~1; for colon length: no Hpx ~5.75
# Description: as §1
# T84 cells [6] = conditions: 1 mM hypoxanthine, 88 h, p<0.001
# Description: We also employed a scratch wound assay to assess the influence of Hpx supplementation on cellular restitution. T84 cells were plated at 35,000 cells per well on a 96-well ImageLock tissue culture plate (Essen Bioscience Inc.) and incubated in standard conditions until a confluent cell monolayer formed (˜24 h). Precise and reproducible wounds were made in all wells with a WoundMaker (Essen Bioscience Inc.). […] Initial images were taken immediately after wounding at 10× using the IncuCyte live-cell imaging (Essen Bioscience Inc.), and then every 2 h over the course of 88 h in culture. Relative wound closure (%) was quantified for every image using the relative wound density metric, a measure of cell density in the wound area relative to the cell density outside of the wound area.
# murine microbiota = test: HPLC analyses of murine fecal extracts after streptomycin treatment; format: in vivo, mice
# Excerpt: Analyses of soluble, extracellular murine fecal metabolite extracts by HPLC identified substantial levels of available purine (˜550 nmol/g), primarily as hypoxanthine (Hpx, ˜350 nmol/g). The production of purines by the microbiota was verified by fecal extract analyses of streptomycin-treated mice, which decreased the available fecal purine more than 80%, lowering available Hpx to <50 nmol/g.
# [7] = system: total colonic purine levels; test: colon tissue metabolites at baseline in CR mice, streptomycin treatment and K12 colonization; format: in vivo; conditions: no DSS
# Description: (§2) Bacterial supply of purine was depleted in CR mice (CR-CNTL) via streptomycin treatment (S-CR-CNTL), and reconstituted by colonization with streptomycin-resistant K12 (S-CR-K12).
# DSS-induced colitis = test: DSS colitis in CR mice, streptomycin treatment and K12 colonization; conditions: colon tissue
# Description: as §2
# Visualization of the colon tissues by hematoxylin and eosin (H&E) staining in the CR mouse groups reveal two key differences between tissue with and without MDP supply. […] These phenotypes correlate with the adenylate energy charge (AEC, (ATP+0.5×ADP)/(ATP+ADP+AMP))—a commonly used index used to indicate cellular energy status that is defined by relative adenine nucleotide levels, providing a more functionally relevant indicator of energy balance than ATP and/or PCr alone.
# Given the association between the AEC and cellular function and the metabolic data indicative of MDP promoting flux through ATP, the colon tissue analyses were extended to Ki67 as marker of proliferation.
# Due to the importance of ATP supply for ER function, the colon tissue immunofluorescent analyses were extended to BiP as a marker of ER stress and the UPR.
# Goblet cells require robust ER function for mucin protein folding and dimerization, prompting analyses of the impact of MDP on colonic mucin production and secretion. To observe mucin production tissue sections were stained with alcian blue. […]
# [8] = subconfluent T84 cells, Allo 20 h
compound,measurement,setting,value
"Nc1ncnc2c1ncn2[C@@H]1O[C@H](COP(=O)(O)OP(=O)(O)O)[C@@H](O)[C@H]1O [ADP, adenosine diphosphate]",Hpx increase in T84 IECs,T84 cells [1]; 100 μM ADP,~15 fold
"Oc1ncnc2[nH]ncc12 [Allo, Allopurinol]",T84 cell barrier formation,"T84 cells [2]; Allo 1 mM, p<0.001",significantly attenuated
same,"Adenine, IMP, and UA levels",T84 cells [1]; [8],undetectable to trace levels
same,TAE,T84 cells [1]; [8],corresponding increase
same,Xan and Ino levels,T84 cells [1]; [8],small increases
same,PCr level,"T84 cells [1]; subconfluent T84 cells, Allo 20 h, from approx. 20",~27 µM
same,Hpx level,"T84 cells [1]; subconfluent T84 cells, Allo 20 h, from approx. 400",~250 nM
same,Ado level,"T84 cells [1]; subconfluent T84 cells, Allo 20 h, from trace/undetectable",approx. 400 nM
"O=c1[nH]cnc2nc[nH]c12 [Hpx, hypoxanthine]",barrier throughout the course of the experiment,"T84 cells [2]; 300 μM and 1 mM Hpx, p<0.03",improved barrier
same,cellular barrier and barrier reformation (calcium switch),"T84 cells [2]; Hpx pre-loading 0.1-1 mM, 20 h",protective of cellular barrier and promoted barrier reformation in a dose-responsive manner
same,increase of intracellular Hpx levels,"T84 cells [1]; T84 cells, Hpx 0.1-1 mM, 20 h pre-exposure",up to 100 fold
same,total available energy (TAE) under hypoxia,T84 cells [3]; hypoxia 1% O2,significant recovery
same,increase of overall barrier resistance above control conditions,"T84 cells [3]; hypoxia 1% O2, 40 h",approx. 1.3 fold
same,colonic AMP,[4]; from 58,84 nmol/g
same,colonic ADP,[4]; from 80,123 nmol/g
same,colonic ATP,[4]; from 192,154 nmol/g
same,total colonic purine,[4]; from 490,560 nmol/g
same,colonic phosphocreatine (PCr),[4]; from 3700,2000 nmol/g
same,urination,[5],excessively urinate
same,body weight lost,DSS colitis; 1 mM Hpx in drinking water,~3%
same,sterility index,DSS colitis; 1 mM Hpx,0.56
same,tissue proliferation,"DSS colitis; 1 mM Hpx, from 0.22",0.54 Ki67/DAPI
same,tissue AEC,DSS colitis; 1 mM Hpx,0.38
same,BiP,DSS colitis; 1 mM Hpx,0.23 BiP/DAPI
same,sterile inner mucin layer,DSS colitis; 1 mM Hpx,~9 μm
same,colon length,DSS colitis; 1 mM Hpx,~6.3 cm
same,body weight lost,DSS colitis; 5 mM Hpx in drinking water,~7%
same,tissue proliferation,"DSS colitis; 5 mM Hpx, control 0.22",0.19 Ki67/DAPI
same,sterility index,DSS colitis; 5 mM Hpx,0.78
same,tissue AEC,DSS colitis; 5 mM Hpx,0.42
same,BiP,DSS colitis; 5 mM Hpx,0.24 BiP/DAPI
same,sterile inner mucin layer,DSS colitis; 5 mM Hpx,~11 μm
same,colon length,DSS colitis; 5 mM Hpx,~6.5 cm
same,epithelial cell population and mucin production (H&E),DSS colitis; Hpx supplementation,recovered
same,"goblet cell mucin production, thecal volumes",DSS colitis; Hpx supplementation,increased thecal volumes
same,increase of epithelial wound closure rate following scratching,T84 cells [6],approx. 1.5 fold
Nc1ncnc2c1ncn2[C@@H]1O[C@H](CO)[C@@H](O)[C@H]1O [adenosine],Hpx increase in T84 IECs,T84 cells [1]; 1 mM adenosine,over 150 fold
[H]/N=C(/N)N[C@H]1[C@H](O)[C@@H](O)[C@H](O[C@@H]2O[C@@H](C)[C@](O)(C=O)[C@H]2O[C@@H]2O[C@@H](CO)[C@H](O)[C@@H](O)[C@@H]2NC)[C@@H](N/C(N)=N\[H])[C@@H]1O [streptomycin],measurable fecal hypoxanthine,murine microbiota; 1 day after streptomycin treatment,nearly complete loss
same,available fecal Hpx,murine microbiota; streptomycin-treated mice,< 50 nmol/g
same,decrease of available fecal purine,murine microbiota; streptomycin-treated mice,more than 80%
same,colon tissue Xan,[7]; CR-CNTL 207,69 nmol/g
same,total colonic purine levels,[7]; CR-CNTL 809,630 nmol/g
same,goblet cell thecal volumes (alcian blue),DSS-induced colitis,broad decline
same,adenylate energy charge (AEC),DSS-induced colitis; CR-CNTL-DSS 0.51,0.44
